Consider three molecules from patent US8012466B2, “Immunogenic compositions for activating γδ T cells” (priority 2008, dated 2011).

Entries after “also recorded” stand apart in the source; their conditions may differ.

The subject of one assay is Vγ9/Vδ2. To be noted: cited from earlier work.
Assay [1] concerns Vγ2Vδ2 T cells. Description: In vitro HMBPP response of rhesus monkey PBMC. To be noted: PBMC stimulated with 100 nM HMBPP. The format is cell-based. The source says:
FIG. 7. Characteristics of rhesus monkey Vγ2Vδ2 T cells. (A). Large in vitro HMBPP responses by Vγ2Vδ2 T cells from most rhesus monkeys. […] (B). Uniform memory subset distribution of rhesus monkey Vγ2Vδ2 T cells. PBMC from 22 monkeys were stained for Vδ2, […], and […]. Vδ2^+ cells were divided in 4 groups based on their expression of CD28 and CD27.
Memory subset distribution and HMBPP response of rhesus monkey Vγ2Vδ2 T cells—In preparation for in vivo immunization of rhesus monkey, we screened 33 monkeys for their ability to respond to HMBPP in vitro, γδ T cells levels, V gene expression, and memory subset distribution. […] Like human Vγ2Vδ2 T cells, monkey Vγ2Vδ2 T cells also could be divided into 4 subsets based on expression of CD28 and CD27 (TEarly=central memory=CD28^+27^+, TEarly CD27−=CD28^+27^−, TIntermediate=CD28^−27^+, and TLate CD45RA+=CD28^−27^−). However, unlike human donors, there were very few monkeys with a predominance of the TLate RA subset. Moreover, whereas Vγ2Vδ2 T cells constituted 73% of human adult γδ T cells, Vγ2Vδ2 T cells constituted only 29% of monkey γδ T cells consistent with our earlier study. […]

Assay [2] relates to Vγ2Vδ2 TCR transfectant, DBS43. Briefly: IL-2 release by Vγ2Vδ2 TCR transfectant DBS43. The format is cell-based. Conditions: unpublished data.
For assay [3], the system named is Vγ2Vδ2 T cells. Briefly: Immunization of rhesus monkeys with zoledronate and HMBPP plus sc IL-2. The format is in vivo, rhesus monkey. Conditions: for in vitro reactivity of PBMC to HMBPP after immunization: PBMC before and ~2 weeks after each immunization, cultured with HMBPP 9 days; for outcome of repeated immunization in vivo: zoledronate 0.06 mg/kg sc or iv twice, then HMBPP 70 mg/kg iv, sc IL-2.

For `CC(O)(CBr)CCOP(=O)(O)OP(=O)(O)O` (centres unmarked) [BrHPP, bromohydrin pyrophosphate], the “return of expansion to baseline” value in the assay on Vγ9/Vδ2 (cynomolgus monkey, in vivo) was 10 to 15 days. In the assay with Vγ9/Vδ2 (first and successive infusions), the “expansion of Vγ9/Vδ2” value is reported as “transiently expand; also recorded: less vigorous expansions”.

Consider `C/C(=C\COP(=O)(O)OP(=O)(O)O)CO` [HMBPP, (E)-4-hydroxy-3-methyl-but-2-enyl pyrophosphate], for which the “monkeys with expansion to >40%” value in the assay on Vγ2Vδ2 T cells [1] is 32/33. For the same molecule, the IL-2 release result in assay [2] is “release IL-2 in response to HMBPP”. Besides, in the assay with Vγ2Vδ2 T cells [3], the “in vitro reactivity of PBMC to HMBPP after immunization” value was “leads to loss of in vitro reactivity to HMBPP” and the “outcome of repeated immunization in vivo” value is recorded as “leads to immune exhaustion”.

Regarding `O=P(O)(O)C(O)(Cn1ccnc1)P(=O)(O)O` [zoledronate], in the assay with Vγ2Vδ2 T cells [3], the “in vitro reactivity of PBMC to HMBPP after immunization” value was “leads to loss of in vitro reactivity to HMBPP”; the “outcome of repeated immunization in vivo” value is “loss of in vivo (FIG. 8) and in vitro proliferation by Vγ2Vδ2 T cells to antigenic stimulation; also recorded: leads to immune exhaustion”.
